Like-named read-outs stand apart in the source and are kept apart here.
Experiments:
Chang X31 cells [1] = assay type: cell-based, human
Chang V9 cells [2] = experiment: Induction of apoptosis by sulfasalazine in the control liver cell line not expressing HBx protein; assay type: cell-based, human; conditions: for extent of apoptosis: 120 h
Chang X31 cells [3] = experiment: DAPI staining, morphology of apoptosis; assay type: cell-based, human; conditions: 1.3 mM sulfasalazine, 72 hours
Protocol: (§1) Chang X 31 and Chang V9 cells were split on 6-well plates, and […], treated with 1.3 mM sulfasalazine.
(§2) 72 hours after the sulfasalzine treatment, DAPI staining was performed to observe apoptosis. The cells were directly fixed in the cold solution consisting of 1% […] and 0.2% glutaraldehyde for 5 min, washed twice with PBS and then stained with 1 mg/ml of DAPI solution (Sigma, USA). The cells were incubated for 5 hours in dark.
(§3) The stained cells were examined using a fluorescent microscopy.

Chang V9 cells [4] = experiment: DAPI staining, morphology of apoptosis; assay type: cell-based, human; conditions: 1.3 mM sulfasalazine, 72 hours
Protocol: as §1, §2, §3

Chang X31 cells [5] = assay type: cell-based, human; conditions: for extent of apoptosis: 120 h
NF-κB = conditions: through inhibiting the phosphorylation of IκB; Wahl et al. 1998; cited from earlier work

In the case of `CC(=O)N[C@@H](CS)C(=O)O` [NAC, N-acetyl-L-cystein], the “apoptosis” value (Chang X31 cells [1]; 2 mM GSH (group I), 1 mM NAC (group II) before 1.3 mM sulfasalazine, 120 h, crystal violet) is reported as “only partial apoptosis” and the “inhibition of the apoptosis of the liver cell line (conclusion)” value (Chang X31 cells [1]; 2 mM GSH, 1 mM NAC, 0.5 mM STS, […]) is reported as “effective in inhibiting the apoptosis”.

Work on `CN[C@@H]1C[C@H]2O[C@@](C)([C@@H]1OC)n1c3ccccc3c3c4c(c5c6ccccc6n2c5c31)C(=O)NC4` [STS, staurosporine] yielded an apoptosis (Chang X31 cells [1]; 0.5 mM STS (group III) before 1.3 mM sulfasalazine, 120 h, crystal violet) of 100%.

In the case of `N[C@@H](CCC(=O)N[C@@H](CS)C(=O)NCC(=O)O)C(=O)O` [GSH, glutathione], the “apoptosis” value (Chang X31 cells [1]) is reported as “only partial apoptosis” and the “inhibition of the apoptosis of the liver cell line (conclusion)” value (Chang X31 cells [1]) is reported as “effective in inhibiting the apoptosis”.

For `O=C(O)c1cc(/N=N/c2ccc(S(=O)(=O)Nc3ccccn3)cc2)ccc1O` [sulfasalazine], the survival rate (Chang V9 cells [2]; 1.0 mM sulfasalazine, re-treated at 48 h, read 72 h after re-treatment (120 h)) was “at least 50%”, the extent of apoptosis (Chang V9 cells [2]; 1.3 mM sulfasalazine) was 10% and the extent of apoptosis (Chang V9 cells [2]; at least 1.5 mM sulfasalazine) was “at least 20%”. For the same compound, the “typical features of apoptosis (nuclear condensation, shrinkage, fragmentation)” value (Chang X31 cells [3]) was “observed in only Chang X 31”, the “typical features of apoptosis (nuclear condensation, shrinkage, fragmentation)” value (Chang V9 cells [4]) was “not in Chang V9” and the survival rate (Chang X31 cells [5]; 1.0 mM sulfasalazine, re-treated at 48 h, read 72 h after re-treatment (120 h), […]) was “at least 50%”. The extent of apoptosis (Chang X31 cells [5]; 1.3 mM sulfasalazine, […]) was 100%, the extent of apoptosis (Chang X31 cells [5]; at least 1.5 mM sulfasalazine, […]) was 100% and the “concentration inducing complete apoptosis of Chang X31 cells” value (Chang X31 cells [5]; complete (100%) apoptosis within 120 hours) was “at least 1.3 mM”. For the same compound, the “effect on TNF-α-induced nuclear translocation of NF-κB” value (NF-κB) was “prevents TNF-α-induced nuclear translocation of NF-κB”.

— US20090054259A1, “METHODS FOR INDUCING COMPLETE APOPTOSIS OF LIVER CELLS EXPRESSING HBCHI PROTEIN AND SCREENING FOR SUBSTANCES OR GENES THAT INHIBIT THE APOPTOSIS” (priority 2004, published 2009)
